From patent US7807185B2, “Methods of inhibiting growth of bacteria, yeast, fungus, and virus with Pseudomonas lindbergii and Bacillus coagulans extracellular products” (Ganeden Biotech, Incorporated, priority 1997, dated 2010)

Experiments:
Assay type in all cases: cell-based
Conditions in all cases: 18 hr at 30° C.
[1] = test system: various species of the fungus Trichophyton; assay: in vitro zone of inhibition assay on potato-dextrose plates, Trichophyton
Method: In the assay, potato-dextrose plates (DIFCO®, Detroit, Mich.) were prepared using standard procedures and were inoculated individually with a confluent bed (about 1.7×10^6) of various species of the fungus Trichophyton. The tested fungal strains of Trichophyton species (available from the American Type Culture Collection (ATCC; 10801 University Boulevard, Manassas, Va. 20110-2209)) and their ATCC accession numbers, as well as the results of in vitro inhibition by Bacillus coagulans are illustrated in FIG. 3.
Inhibition by Bacillus coagulans was ascertained by placing on the plate approximately 1.5×10^6 colony forming units (CFU) in 10 μl of broth or buffer, plated directly in the center of the potato-dextrose plate, with one test locus per plate. The size of each test locus was approximately 8 mm in diameter and a minimum of three tests were performed for each inhibition assay. The negative control consisted of a […] volume of sterile saline solution, whereas the positive control consisted of a […] volume 2% Miconazole (1-[2-(2,4-dichlorophenyl)-2-[(2,4-dichlorophenyl)methoxy]methyl-[…] within an inert cream.
The plates were then incubated for approximately 18 hr at 30° C., at which time the zones of inhibition were measured. […]

four species of Candida = assay: in vitro zone of inhibition assay on potato-dextrose plates, Candida
Method: Each of the yeast pathogens and their ATCC accession numbers are illustrated in FIG. 4.
In the in vitro inhibition assay, potato-dextrose plates (DIFCO®, Detroit, Mich.) were prepared using standard procedures and were inoculated individually with a confluent bed about 1.7×10^6 of the four species of Candida. Inhibition by Bacillus coagulans was tested by placing on the plate about 1.5×10^6 colony forming units (CFU) in 10 μl of broth or buffer, plated directly in the center of the potato-dextrose plate with one test locus of about 8 mm in diameter per plate. A minimum of three tests were performed for each inhibition assay. The negative control consisted of a 10 μl volume of a sterile saline solution, whereas the positive control consisted of a 1 μl volume of Miconazole cream.
The plates were then incubated for approximately 18 hr at 30° C., at which time the zones of inhibition were measured. As designated herein, “excellent inhibition” means the zone was 10 mm or greater in diameter; and “good inhibition” means the zone was greater than 2 mm in diameter, but less than 10 mm in diameter.

[2] = test system: various opportunistic bacterial pathogens; assay: in vitro bacterial pathogen screen, zone of inhibition (DIFCO BACTROL Disk Set)
Source text: The ability of Bacillus coagulans to inhibit various opportunistic bacterial pathogens was quantitatively ascertained by use of an in vitro assay. This assay is part of a standardized bacterial pathogen screen (developed by the U.S. Food and Drug Administration (FDA)) and is commercially available on solid support disks (DIFCO® BACTROL® Disk Set). To perform the assay, potato-dextrose plates (DIFCO®) were initially prepared using standard procedures. The plates were then individually inoculated with each of the bacteria (approximately 1.5×10^6 CFU) to be tested, so as to form a confluent bacterial bed.
Inhibition by Bacillus coagulans was subsequently ascertained by placing approximately 1.5×10^6 CFU of Bacillus coagulans in 10 μl of broth or buffer, directly in the center of the potato-dextrose plate, with one test locus being approximately 8 mm in diameter per plate. A minimum of three test loci were used for each assay. The negative control consisted of a 10 μl volume of a sterile saline solution, whereas the positive control consisted of a 10 μl volume of glutaraldehyde. The plates were then incubated for approximately about 18 hr at 30° C., at which time the zones of inhibition were measured. […]

Structure (SMILES) | zone of inhibition diameter ([1]; 10 ml volume 2% Miconazole in inert cream, mean average of three tests) | inhibition grade (zone of inhibition) [1] | zone of inhibition diameter (four species of Candida; 1 μl volume of Miconazole cream, average of three tests) | inhibition grade (zone of inhibition) (four species of Candida) | zone of inhibition diameter ([2]; 10 μl volume of glutaraldehyde, average of three tests) | inhibition grade (zone of inhibition) [2]
Clc1ccc(COC(Cn2ccnc2)c2ccc(Cl)cc2Cl)c(Cl)c1 (stereo not drawn) [positive control] | approximately 8.5 mm | good inhibition (the zone was greater than 2 mm in diameter, but less than 10 mm in diameter) | approximately 8.7 mm | good inhibition (the zone was greater than 2 mm in diameter, but less than 10 mm in diameter) | – | –
O=CCCCC=O [glutaraldehyde] | – | – | – | – | approximately 16.2 mm | excellent
